Reference: patent US20240300980A1, “HETEROCYCLIC COMPOUNDS AS KRAS INHIBITOR, AND PREPARATION THEREFOR AND USE THEREOF IN TREATMENT” (SHANGHAI KECHOW PHARMA, INC., priority 2021, published 2024)
pIC50: −log10 of the molar value.

test system: AGS cells (KRAS^G12D); assay: Detection of cell proliferation in vitro by MTT/MTS method (cell activity experiment); format: cell-based; settings: AGS cells; MTT/MTS; 3 days of drug treatment; read-out: AGS IC50
In short: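 KRAS G12D AGS cells seeded at 1000 per well, compound added 24 h later, 0.5% final DMSO. Viability read after 3 days of treatment by MTT (solubilised in DMSO) or MTS, 4 h, absorbance 490 nm. IC50 from dose–response curves versus DMSO control.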

Compared with `C#Cc1c(F)ccc2cc(O)cc(-c3ccc4c(N5C[C@H]6CC[C@@H](C5)[C@@H]6S(=O)(=O)C(F)(F)F)nc(OC[C@@]56CCCN5C[C@H](F)C6)nc4c3F)c12` [Example 132, 5-ethynyl-6-fluoro-4-(8-fluoro-2-(((2R,7aS)-2-fluorotetrahydro-1H-pyrrolizin-7a(5H)-yl)methoxy)-4-((1R,5S, 8R)-8-((trifluoromethyl)sulfonyl)-3-azabicyclo [3.2.1]octan-3-yl)quinazolin-7-yl) naphthalen-2-ol], `C#Cc1c(F)ccc2cc(O)cc(-c3ccc4c(N5C[C@H]6CC[C@@H](C5)N6)nc(OC[C@]56CCCN5[C@@H](COC(=O)N(C)C)CC6)nc4c3)c12` [Example 153, ((3R,7aR)-7a-(((4-((1R, 5S)-3,8-diazabicyclo [3.2.1]octan-3-yl)-7-(8-ethynyl-7-fluoro-3-hydroxynaphthalen-1-yl)quinazolin-2-yl)oxy)methyl)hexahydro-1H-pyrrolizin-3-yl) methyl dimethylcarbamate] is higher in pIC50: under 5.60 for the first, 6.72 for the second.

same assay, conditions: Homo sapiens, AGS, 72 h, AGS cells; MTT/MTS; 3 days of drug treatment; read-out: AGS IC50

First: CCc1c(F)ccc2cc(O)cc(-c3ccc4c(N5C[C@H]6CC[C@@H](C5)N6)nc(OC[C@@]56CCCN5C[C@H](F)C6)nc4c3)c12 [Example 149, 4-(4-((1R,5S)-3,8-diazabicyclo[3.2.1]octan-3-yl)-2-(((2R, 7aS)-2-fluorotetrahydro-1H-pyrrolizin-7a(5H)-yl)methoxy)quinazolin-7-yl)-5-ethyl-6-fluoronaphthalen-2-ol]
Second: Oc1ccc2c(C#Cc3ccc4c(N5C[C@H]6CC[C@@H](C5)N6)nc(OC[C@@]56CCCN5C[C@H](F)C6)nc4c3F)c(F)ccc2c1 [Example 367, 5-((4-((1R,5S)-3,8-diazabicyclo[3.2.1]octan-3-yl)-8-fluoro-2-(((2R,7aS)-2-fluorotetrahydro-1H-pyrrolizin-7a(5H)-yl)methoxy)quinazolin-7-yl)ethynyl)-6-fluoronaphthalen-2-ol]
The pIC50 of the first is 0.22 log units lower: 6.49 for the first, 6.71 for the second. The second is the more potent here.

Compared with `CCc1cccc2cc(O)cc(-c3ccc4c(N5C[C@H]6CC[C@@H](C5)N6)nc(OCC5(CN6CCCC6)CC5)nc4c3F)c12` [Example 104, 4-(4-((1R,5S)-3,8-diazabicyclo[3.2.1]octan-3-yl)-8-fluoro-2-((1-(pyrrolidin-1-ylmethyl)cyclopropyl)methoxy)quinazolin-7-yl)-5-ethylnaphthalen-2-ol], `Oc1cc(-c2ccc3c(N4C[C@H]5CC[C@@H](C4)N5)nc(OCC4(CN5CCCC5)CC4)nc3c2F)c2c(F)cccc2c1` [Example 102, 4-(4-((1R,5S)-3,8-diazabicyclo[3.2.1]octan-3-yl)-8-fluoro-2-((1-(pyrrolidin-1-ylmethyl)cyclopropyl)methoxy)quinazolin-7-yl)-5-fluoronaphthalen-2-ol] is 0.24 log units higher in pIC50: 7.24 for the first, 7.48 for the second.

`Cc1cc(N)nc(-c2ncc3c(N4C[C@H]5CC[C@@H](C4)N5)nc(OCC4(CN5CCCC5)CC4)nc3c2F)c1C(F)(F)F` [Example 8, 6-(4-((1R,5S)-3,8-diazabicyclo[3.2.1]octan-3-yl)-8-fluoro-2-((1-(pyrrolidin-1-ylmethyl)cyclopropyl)methoxy)pyrido[4,3-d]pyrimidin-7-yl)-4-methyl-5-(trifluoromethyl) pyridin-2-amine] and `Nc1cc2ccc(F)c(Cl)c2c(-c2ncc3c(N4C[C@H]5CC[C@@H](C4)N5)nc(OC[C@@]45CCCN4C[C@H](F)C5)nc3c2F)n1` [Example 39, 1-(4-((1R,5S)-3,8-diazabicyclo[3.2.1]octan-3-yl)-8-fluoro-2-(((2R,7aS)-2-fluorotetrahydro-1H-pyrrolizin-7a(5H)-yl)methoxy)pyrido[4,3-d]pyrimidin-7-yl)-8-chloro-7-fluoroisoquinolin-3-amine] cannot be ordered by pIC50: under 6.00 for the first, under 5.60 for the second.

First: C#Cc1c(F)ccc2cc(O)cc(-c3ccc4c(N5C[C@H]6CC[C@@H](C5)N6)nc(OC[C@]56CCCN5[C@@H](COC(=O)N(C)C)CC6)nc4c3F)c12 [Example 96, ((3R,7aR)-7a-(((4-((1R,5S)-3,8-diazabicyclo[3.2.1]octan-3-yl)-7-(8-ethynyl-7-fluoro-3-hydroxynaphthalen-1-yl)-8-fluoroquinazolin-2-yl)oxy)methyl)hexahydro-1H-pyrrolizin-3-yl)methyl dimethylcarbamate]
Second: C#Cc1c(F)ccc2cc(O)cc(-c3c(CCC#N)cc4c(N5C[C@H]6CC[C@@H](C5)N6)nc(OC[C@@]56CCCN5C[C@H](F)C6)nc4c3F)c12 [Example 378, 3-(4-((1R,5S)-3,8-diazabicyclo[3.2.1]octan-3-yl)-7-(8-ethynyl-7-fluoro-3-hydroxynaphthalen-1-yl)-8-fluoro-2-(((2R,7aS)-2-fluorotetrahydro-1H-pyrrolizin-7a(5H)-yl)methoxy)quinazolin-6-yl)propanenitrile]
The pIC50 of the first is 1.30 log units higher: 8.10 for the first, 6.80 for the second.

Compared with `CCC1COc2cc(O)cc(-c3ncc4c(N5C[C@H]6CC[C@@H](C5)N6)nc(OC[C@@]56CCCN5C[C@H](F)C6)nc4c3F)c21` (stereo partly drawn) [Example 243, 4-(4-((1R,5S)-3,8-diazabicyclo[3.2.1]octan-3-yl)-8-fluoro-2-(((2R,7aS)-2-fluorotetrahydro-1H-pyrrolizin-7a(5H)-yl)methoxy)pyrido[4,3-d]pyrimidin-7-yl)-3-ethyl-2,3-dihydrobenzofuran-6-ol], `CC[C@@H]1CCCc2cc(O)cc(-c3ncc4c(N5CC6CCC(C5)N6)nc(OC[C@@]56CCCN5C[C@H](F)C6)nc4c3F)c21` (single isomer, unassigned) [Example 228, (R)-4-(4-((1R,5S)-3,8-diazabicyclo[3.2.1]octan-3-yl)-8-fluoro-2-(((2R,7aS)-2-fluorotetrahydro-1H-pyrrolizin-7a(5H)-yl)methoxy)pyrido[4,3-d]pyrimidin-7-yl)-5-ethyl-5,6,7,8-tetrahydronaphthalen-2-ol or (S)-4-(4-((1R,5S)-3,8-diazabicyclo[3.2.1]octan-3-yl)-8-fluoro-2-(((2R,7aS)-2-fluorotetrahydro-1H-pyrrolizin-7a(5H)-yl)methoxy)pyrido[4,3-d]pyrimidin-7-yl)-5-ethyl-5,6,7,8-tetrahydronaphthalen-2-ol] is 1.78 log units lower in pIC50: 7.74 for the first, 5.96 for the second.

First: C#Cc1c(F)ccc2cc(O)cc(-c3c4c(c5c(N6C[C@H]7CC[C@@H](C6)N7)nc(OC[C@@]67CCCN6C[C@H](F)C7)nc5c3F)CCC4)c12 [Example 379, 4-(1-((1R,5S)-3,8-diazabicyclo[3.2.1]octan-3-yl)-5-fluoro-3-(((2R,7aS)-2-fluorotetrahydro-1H-pyrrolizin-7a(5H)-yl)methoxy)-8,9-dihydro-7H-cyclopenta[f]quinazolin-6-yl)-5-ethynyl-6-fluoronaphthalen-2-ol]
Second: CC1CCCc2cc(O)cc(-c3c4c(c5c(N6C[C@H]7CC[C@@H](C6)N7)nc(OC[C@@]67CCCN6C[C@H](F)C7)nc5c3F)CCC4)c21 (stereo partly drawn) [Example 382, 4-(1-((1R,5S)-3,8-diazabicyclo[3.2.1]octan-3-yl)-5-fluoro-3-(((2R,7aS)-2-fluorotetrahydro-1H-pyrrolizin-7a(5H)-yl)methoxy)-8,9-dihydro-7H-cyclopenta[f]quinazolin-6-yl)-5-methyl-5,6,7,8-tetrahydronaphthalen-2-ol]
The pIC50 of the first is 0.30 log units lower: 7.05 for the first, 7.35 for the second.

Going from `Oc1cc2c(c(-c3ncc4c(N5C[C@H]6CC[C@@H](C5)N6)nc(OC[C@@]56CCCN5C[C@H](F)C6)nc4c3F)c1)CCCC2` [Example 271, 4-(4-((1R,5S)-3,8-diazabicyclo[3.2.1]octan-3-yl)-8-fluoro-2-(((2R,7aS)-2-fluorotetrahydro-1H-pyrrolizin-7a(5H)-yl)methoxy)pyrido[4,3-d]pyrimidin-7-yl)-5,6,7,8-tetrahydronaphthalen-2-ol] to `Oc1cc2c(c(-c3ncc4c(N5C[C@H]6CC[C@@H](C5)N6)nc(OC[C@@]56CCCN5C[C@H](F)C6)nc4c3F)c1)C1(CCC2)CC1` [Example 256, 8′-(4-((1R,5S)-3,8-diazabicyclo[3.2.1]octan-3-yl)-8-fluoro-2-(((2R,7aS)-2-fluorotetrahydro-1H-pyrrolizin-7a(5H)-yl)methoxy)pyrido[4,3-d]pyrimidin-7-yl)-3′,4′-dihydro-2′H-spiro[cyclopropane-1,1′-naphthalen]-6′-ol], the pIC50 falls from 7.96 to 6.52 (1.44 log units). The first is the more potent here.

`C#Cc1c(F)ccc2cc(O)cc(-c3ncc4c(C5C[C@H]6CC[C@@H](C5)N6)nc(OC[C@@]56CCCN5C[C@H](F)C6)nc4c3F)c12` (stereo partly drawn) [Example 79, 4-(4-((1R,5S)-8-azabicyclo[3.2.1]octan-3-yl)-8-fluoro-2-(((2R,7aS)-2-fluorotetrahydro-1H-pyrrolizin-7a(5H)-yl)methoxy)pyrido[4,3-d]pyrimidin-7-yl)-5-ethynyl-6-fluoronaphthalen-2-ol] and `C#Cc1c(F)ccc2cc(O)cc(-c3ncc4c(N5CCC6(CCCS6(=O)=O)CC5)nc(OC[C@@]56CCCN5C[C@H](F)C6)nc4c3F)c12` [Example 50, 8-(7-(8-ethynyl-7-fluoro-3-hydroxynaphthalen-1-yl)-8-fluoro-2-(((2R, 7aS)-2-fluorotetrahydro-1H-pyrrolizin-7a(5H)-yl)methoxy)pyrido[4,3-d]pyrimidin-4-yl)-1-thia-8-azaspiro[4.5] decane 1,1-dioxide] cannot be ordered by pIC50: under 5.60 for the first, under 5.00 for the second.

Going from `Oc1cc2c(c(-c3ncc4c(N5C[C@H]6CC[C@@H](C5)N6)nc(OC[C@@]56CCCN5C[C@H](F)C6)nc4c3F)c1)C(CCF)CC2` (stereo partly drawn) [Example 259, 7-(4-((1R,5S)-3,8-diazabicyclo[3.2.1]octan-3-yl)-8-fluoro-2-(((2R,7aS)-2-fluorotetrahydro-1H-pyrrolizin-7a(5H)-yl)methoxy)pyrido[4,3-d]pyrimidin-7-yl)-1-(2-fluoroethyl)-2,3-dihydro-1H-inden-5-ol] to `Oc1cc(-c2ccc3c(N4C[C@H]5CC[C@@H](C4)S5)nc(OC[C@@]45CCCN4C[C@H](F)C5)nc3c2F)c2c(F)cccc2c1` [Example 167, 4-(4-((1R,5S)-8-thia-3-azabicyclo[3.2.1]octan-3-yl)-8-fluoro-2-(((2R,7aS)-2-fluorotetrahydro-1H-pyrrolizin-7a(5H)-yl)methoxy)quinazolin-7-yl)-5-fluoronaphthalen-2-ol], the pIC50 rises from 5.58 to 6.51 (0.93 log units). The second is the more potent here.
